In patent US20250145609A1, “3-SUBSTITUTED PYRIDAZINE COMPOUNDS AS SMARCA2 AND/OR SMARCA4 DEGRADERS” (Aurigene Oncology Limited, priority 2022, published 2025):

Key:
[1] = molecular target: T1, SMARCA2 (Homo sapiens, UniProt P51531); experiment: SMARCA2 degradation in VCaP cells by Western blot; assay type: cell-based; conditions: at 100 nM, 16 hours
T1 construct: endogenous in cells; host or cells: VCaP (ATCC CRL-2876)
Procedure: (§1) Example-P2: Determination of SMARCA2 and SMARCA4 Degradation in VCaP Cells by Western Blot
(§2) VCaP (ATCC CRL-2876) was plated in 6 well plates using complete Dulbecco's Modified Eagle's Medium. On the third day, compounds of present invention were added to cells from 10 mM stocks made in DMSO (Sigma Cat no. D2650). Each compound was tested at 100 nM concentration with DMSO not exceeding final percentage of 0.3 in the cells. Cells were incubated with the compound for 16 hours followed by harvesting with 1×RIPA lysis buffer (Thermo Fischer, catalogue number #89900) containing protease inhibitor cocktail (Sigma catalogue number #P-8340). Equal amount of protein was loaded on SDS PAGE gel for electrophoresis. Western blot was carried out for detection of either SMARCA2 (Cell signalling technologies, catalogue number #11966) or SMARCA4 antibody (Cell signalling technologies, catalogue number #52251). Beta-Tubulin antibody (Cell signalling technologies, catalogue number #86298) was used as loading control. Percentage of SMARCA2 or SMARCA4 degradation was calculated by using formula: […]

[2] = molecular target: T2, SMARCA4 (Homo sapiens, UniProt P51532); experiment: SMARCA4 degradation in VCaP cells by Western blot; assay type: cell-based; conditions: at 100 nM; for Percent SMARCA4 degradation at 0.1 µM: VCaP, 16 h; for Percent degradation SMARCA4: 16 hours
T2 construct: endogenous in cells; host or cells: VCaP (ATCC CRL-2876)
Procedure: as §1, §2

T1 sequence (P51531 whole entry): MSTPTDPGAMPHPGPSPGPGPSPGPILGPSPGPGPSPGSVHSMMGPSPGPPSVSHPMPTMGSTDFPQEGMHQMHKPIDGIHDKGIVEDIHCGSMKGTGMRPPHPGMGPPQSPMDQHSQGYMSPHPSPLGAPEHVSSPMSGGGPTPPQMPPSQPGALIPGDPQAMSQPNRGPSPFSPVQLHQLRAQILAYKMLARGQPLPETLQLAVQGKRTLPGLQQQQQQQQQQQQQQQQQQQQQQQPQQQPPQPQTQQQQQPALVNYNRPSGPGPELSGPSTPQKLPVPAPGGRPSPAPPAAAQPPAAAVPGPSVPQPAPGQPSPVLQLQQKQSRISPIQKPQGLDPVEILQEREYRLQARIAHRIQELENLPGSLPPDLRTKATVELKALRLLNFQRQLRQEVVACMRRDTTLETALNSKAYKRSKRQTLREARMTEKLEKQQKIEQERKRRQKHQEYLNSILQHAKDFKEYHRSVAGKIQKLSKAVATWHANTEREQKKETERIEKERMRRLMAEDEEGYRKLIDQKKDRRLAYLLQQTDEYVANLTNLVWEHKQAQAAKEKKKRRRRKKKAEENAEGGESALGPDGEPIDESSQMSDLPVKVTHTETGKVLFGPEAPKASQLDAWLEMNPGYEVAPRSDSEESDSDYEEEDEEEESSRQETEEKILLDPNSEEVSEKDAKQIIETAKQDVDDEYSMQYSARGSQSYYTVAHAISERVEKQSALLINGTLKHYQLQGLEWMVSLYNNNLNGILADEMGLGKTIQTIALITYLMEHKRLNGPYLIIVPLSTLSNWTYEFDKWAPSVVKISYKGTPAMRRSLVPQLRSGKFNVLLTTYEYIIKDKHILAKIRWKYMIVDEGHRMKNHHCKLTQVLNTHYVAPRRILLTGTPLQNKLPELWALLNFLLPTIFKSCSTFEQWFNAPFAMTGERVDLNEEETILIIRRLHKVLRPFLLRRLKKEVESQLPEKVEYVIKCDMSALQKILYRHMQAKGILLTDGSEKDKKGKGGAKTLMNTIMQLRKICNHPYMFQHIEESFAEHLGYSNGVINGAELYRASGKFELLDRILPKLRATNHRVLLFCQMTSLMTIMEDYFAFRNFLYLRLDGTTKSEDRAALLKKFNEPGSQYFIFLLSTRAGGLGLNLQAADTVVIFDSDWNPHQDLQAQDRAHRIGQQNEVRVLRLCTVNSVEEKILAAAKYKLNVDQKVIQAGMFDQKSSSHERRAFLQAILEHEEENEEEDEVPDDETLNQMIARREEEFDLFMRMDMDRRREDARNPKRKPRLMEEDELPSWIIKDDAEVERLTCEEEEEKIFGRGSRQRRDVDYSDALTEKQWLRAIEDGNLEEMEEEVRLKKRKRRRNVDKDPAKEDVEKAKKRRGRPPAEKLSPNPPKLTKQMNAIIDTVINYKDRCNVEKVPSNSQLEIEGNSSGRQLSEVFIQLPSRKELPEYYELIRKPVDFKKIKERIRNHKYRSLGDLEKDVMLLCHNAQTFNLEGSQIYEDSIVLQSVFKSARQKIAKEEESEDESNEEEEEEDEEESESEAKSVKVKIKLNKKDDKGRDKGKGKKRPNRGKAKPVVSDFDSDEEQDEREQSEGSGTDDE
T2 sequence (P51532 whole entry): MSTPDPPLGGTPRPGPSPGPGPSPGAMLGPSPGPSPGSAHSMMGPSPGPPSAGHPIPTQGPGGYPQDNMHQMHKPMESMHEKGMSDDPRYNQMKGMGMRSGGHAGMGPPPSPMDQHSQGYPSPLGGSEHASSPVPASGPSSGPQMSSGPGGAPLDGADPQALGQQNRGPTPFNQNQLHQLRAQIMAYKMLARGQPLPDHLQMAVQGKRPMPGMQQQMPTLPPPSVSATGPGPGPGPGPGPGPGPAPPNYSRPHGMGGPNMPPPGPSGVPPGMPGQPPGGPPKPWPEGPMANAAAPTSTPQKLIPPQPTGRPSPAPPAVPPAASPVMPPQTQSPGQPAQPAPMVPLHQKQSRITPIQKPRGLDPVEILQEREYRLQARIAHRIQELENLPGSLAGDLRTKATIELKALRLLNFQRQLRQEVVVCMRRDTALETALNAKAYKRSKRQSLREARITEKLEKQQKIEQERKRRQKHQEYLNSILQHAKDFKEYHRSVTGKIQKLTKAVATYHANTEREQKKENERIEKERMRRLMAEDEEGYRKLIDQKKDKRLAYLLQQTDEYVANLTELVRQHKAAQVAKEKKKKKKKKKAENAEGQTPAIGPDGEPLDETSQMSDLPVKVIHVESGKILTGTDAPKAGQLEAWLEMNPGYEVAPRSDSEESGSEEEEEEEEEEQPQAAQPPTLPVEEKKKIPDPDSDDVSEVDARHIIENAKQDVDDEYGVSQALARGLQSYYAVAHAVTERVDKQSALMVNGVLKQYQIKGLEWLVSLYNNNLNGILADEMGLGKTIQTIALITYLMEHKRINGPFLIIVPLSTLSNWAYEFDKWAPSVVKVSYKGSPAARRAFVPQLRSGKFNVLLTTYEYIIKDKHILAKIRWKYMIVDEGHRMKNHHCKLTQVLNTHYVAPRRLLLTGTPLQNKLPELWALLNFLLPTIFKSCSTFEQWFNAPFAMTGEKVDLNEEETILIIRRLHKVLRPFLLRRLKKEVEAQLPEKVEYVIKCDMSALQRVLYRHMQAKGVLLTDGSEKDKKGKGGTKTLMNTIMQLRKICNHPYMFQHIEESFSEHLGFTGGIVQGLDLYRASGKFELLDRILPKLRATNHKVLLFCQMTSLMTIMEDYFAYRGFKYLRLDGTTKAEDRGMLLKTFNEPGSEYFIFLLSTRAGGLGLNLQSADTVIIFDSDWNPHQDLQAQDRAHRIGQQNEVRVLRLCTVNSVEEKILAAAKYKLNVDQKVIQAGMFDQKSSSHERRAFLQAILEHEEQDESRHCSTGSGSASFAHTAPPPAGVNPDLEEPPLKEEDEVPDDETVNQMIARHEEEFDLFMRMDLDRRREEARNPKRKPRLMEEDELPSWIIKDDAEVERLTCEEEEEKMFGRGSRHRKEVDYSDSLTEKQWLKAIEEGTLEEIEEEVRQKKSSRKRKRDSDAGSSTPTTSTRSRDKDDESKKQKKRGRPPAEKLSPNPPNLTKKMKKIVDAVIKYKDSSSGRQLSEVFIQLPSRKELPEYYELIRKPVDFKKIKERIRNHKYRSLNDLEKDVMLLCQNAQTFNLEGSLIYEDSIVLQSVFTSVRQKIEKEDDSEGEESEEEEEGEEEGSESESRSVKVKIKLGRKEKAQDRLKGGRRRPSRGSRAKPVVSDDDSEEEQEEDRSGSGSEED

Percent degradation SMARCA2 [1] [%] | Percent SMARCA4 degradation at 0.1 µM [2] [%] | Percent degradation SMARCA4 [2] [%] | SMILES
27 | 38 |  | Cc1ncsc1-c1ccc([C@H](C)NC(=O)[C@@H]2C[C@@H](O)CN2C(=O)[C@@H](NC(=O)CN2CCN(c3ccc(-c4cc(Cl)nnc4N)cc3)CC2)C(C)(C)C)cc1 [Compound 13, (2S,4R)-1-((S)-2-(2-(4-(4-(3-amino-6-chloropyridazin-4-yl)phenyl)piperazin-1-yl)acetamido)-3,3-dimethylbutanoyl)-4-hydroxy-N—((S)-1-(4-(4-methylthiazol-5-yl)phenyl)ethyl)pyrrolidine-2-carboxamide]
0 | 18 |  | Cc1ncsc1-c1ccc([C@H](C)NC(=O)[C@@H]2C[C@@H](O)CN2C(=O)C(c2cc(-c3ccc(-c4cc(-c5ccccc5C(F)F)nnc4N)cc3)no2)C(C)C)cc1 (stereo partly drawn) [Compound 8, (2S,4R)-1-(2-(3-(4-(3-amino-6-(2-(difluoromethyl)phenyl)pyridazin-4-yl)phenyl)isoxazol-5-yl)-3-methylbutanoyl)-4-hydroxy-N-((S)-1-(4-(4-methylthiazol-5-yl)phenyl)ethyl)pyrrolidine-2-carboxamide]
98 | 96 |  | Cc1ncsc1-c1ccc([C@H](C)NC(=O)[C@@H]2C[C@@H](O)CN2C(=O)[C@@H](NC(=O)CN2CCC(c3cccc(-c4cc(-c5ccccc5O)nnc4N)c3)CC2)C(C)(C)C)cc1 [Compound 46, (2S,4R)-1-((S)-2-(2-(4-(3-(3-amino-6-(2-hydroxyphenyl)pyridazin-4-yl)phenyl)piperidin-1-yl)acetamido)-3,3-dimethylbutanoyl)-4-hydroxy-N-((S)-1-(4-(4-methylthiazol-5-yl)phenyl)ethyl)pyrrolidine-2-carboxamide]
8 | 16 |  | COc1ncccc1-c1cc(-c2ccc(N3CCN(CC(=O)N[C@H](C(=O)N4C[C@H](O)C[C@H]4C(=O)N[C@@H](C)c4ccc(-c5scnc5C)cc4)C(C)(C)C)CC3)cc2)c(N)nn1 [Compound 15, (2S,4R)-1-((S)-2-(2-(4-(4-(3-amino-6-(2-methoxypyridin-3-yl)pyridazin-4-yl)phenyl)piperazin-1-yl)acetamido)-3,3-dimethylbutanoyl)-4-hydroxy-N—((S)-1-(4-(4-methylthiazol-5-yl)phenyl)ethyl)pyrrolidine-2-carboxamide]
97 |  | 92 | Cc1ncsc1-c1ccc([C@H](C)NC(=O)[C@@H]2C[C@@H](O)CN2C(=O)[C@@H](NC(=O)CC2CCC(c3ccc(-c4cc(-c5ccccc5O)nnc4N)cc3)CC2)C(C)(C)C)cc1 (single isomer, unassigned) [Compound 45]
98 | 97 |  | Cc1ncsc1-c1ccc([C@H](C)NC(=O)[C@@H]2C[C@@H](O)CN2C(=O)[C@@H](NC(=O)CCC#Cc2ccc(-c3cc(-c4ccccc4O)nnc3N)cc2)C(C)(C)C)cc1 [Compound 20, (2S,4R)-1-((S)-2-(5-(4-(3-amino-6-(2-hydroxyphenyl)pyridazin-4-yl)phenyl)pent-4-ynamido)-3,3-dimethylbutanoyl)-4-hydroxy-N-((S)-1-(4-(4-methylthiazol-5-yl)phenyl)ethyl)pyrrolidine-2-carboxamide]
66 | 0 |  | Cc1ncsc1-c1ccc([C@H](C)NC(=O)[C@@H]2C[C@@H](O)CN2C(=O)[C@@H](NC(=O)Cn2cc(-c3ccc(-c4cc(-c5ccccc5O)nnc4N)cc3)cn2)C(C)(C)C)cc1 [Compound 49, (2S,4R)-1-((S)-2-(2-(4-(4-(3-amino-6-(2-hydroxyphenyl)pyridazin-4-yl)phenyl)-1H-pyrazol-1-yl)acetamido)-3,3-dimethylbutanoyl)-4-hydroxy-N-((S)-1-(4-(4-methylthiazol-5-yl)phenyl)ethyl)pyrrolidine-2-carboxamide]
98 | 93 |  | Cc1ncsc1-c1ccc([C@H](C)NC(=O)[C@@H]2C[C@@H](O)CN2C(=O)[C@@H](NC(=O)CCN2CCN(c3ccc(-c4cc(-c5ccccc5O)nnc4N)cc3)CC2)C(C)(C)C)cc1 [Compound 18, (2S,4R)-1-((S)-2-(3-(4-(4-(3-amino-6-(2-hydroxyphenyl)pyridazin-4-yl)phenyl)piperazin-1-yl)propanamido)-3,3-dimethylbutanoyl)-4-hydroxy-N—((S)-1-(4-(4-methylthiazol-5-yl)phenyl)ethyl)pyrrolidine-2-carboxamide]
82 | 49 |  | Cc1ncsc1-c1ccc([C@H](C)NC(=O)[C@@H]2C[C@@H](O)CN2C(=O)[C@@H](NC(=O)CCCC#Cc2ccc(-c3cc(-c4cc(F)ccc4O)nnc3N)cc2)C(C)(C)C)cc1 [Compound 23, (2S,4R)-1-((S)-2-(6-(4-(3-amino-6-(5-fluoro-2-hydroxyphenyl)pyridazin-4-yl)phenyl)hex-5-ynamido)-3,3-dimethylbutanoyl)-4-hydroxy-N-((S)-1-(4-(4-methylthiazol-5-yl)phenyl)ethyl)pyrrolidine-2-carboxamide]
99 | 95 |  | Cc1ncsc1-c1ccc([C@H](C)NC(=O)[C@@H]2C[C@@H](O)CN2C(=O)[C@@H](NC(=O)C2CCN(c3ccc(-c4cc(-c5ccccc5O)nnc4N)cc3)CC2)C(C)(C)C)cc1 [Compound 47, 1-(4-(3-amino-6-(2-hydroxyphenyl)pyridazin-4-yl)phenyl)-N-((S)-1-((2S,4R)-4-hydroxy-2-(((S)-1-(4-(4-methylthiazol-5-yl)phenyl)ethyl)carbamoyl)pyrrolidin-1-yl)-3,3-dimethyl-1-oxobutan-2-yl)piperidine-4-carboxamide]
100 |  | 97 | Cc1ncsc1-c1ccc([C@H](C)NC(=O)[C@@H]2C[C@@H](O)CN2C(=O)[C@@H](NC(=O)CN2CCC(c3ccc(-c4cc(-c5ccccc5O)nnc4N)cc3)CC2C)C(C)(C)C)cc1 (single isomer, unassigned) [Compound 37]
99 | 71 |  | Cc1ncsc1-c1ccc([C@H](C)NC(=O)[C@@H]2C[C@@H](O)CN2C(=O)[C@@H](NC(=O)CN2CCC(N(C)c3ccc(-c4cc(-c5ccccc5O)nnc4N)cc3)CC2)C(C)(C)C)cc1 [Compound 55, (2S,4R)-1-((S)-2-(2-(4-((4-(3-amino-6-(2-hydroxyphenyl)pyridazin-4-yl)phenyl)(methyl)amino)piperidin-1-yl)acetamido)-3,3-dimethylbutanoyl)-4-hydroxy-N—((S)-1-(4-(4-methylthiazol-5-yl)phenyl)ethyl)pyrrolidine-2-carboxamide]
59 | 47 |  | Cc1ncsc1-c1ccc([C@H](C)NC(=O)[C@@H]2C[C@@H](O)CN2C(=O)[C@@H](NC(=O)CN2CCN(c3ccc(-c4cc(-c5ccccc5F)nnc4N)cc3)CC2)C(C)(C)C)cc1 [Compound 27, (2S,4R)-1-((S)-2-(2-(4-(4-(3-amino-6-(2-fluorophenyl)pyridazin-4-yl)phenyl)piperazin-1-yl)acetamido)-3,3-dimethylbutanoyl)-4-hydroxy-N—((S)-1-(4-(4-methylthiazol-5-yl)phenyl)ethyl)pyrrolidine-2-carboxamide]
2 | 7 |  | Cc1ncsc1-c1ccc([C@H](C)NC(=O)[C@@H]2C[C@@H](O)CN2C(=O)[C@@H](NC(=O)CC#Cc2ccc(-c3cc(Cl)nnc3N)cc2)C(C)(C)C)cc1 [Compound 22, (2S,4R)-1-((S)-2-(4-(4-(3-amino-6-chloropyridazin-4-yl)phenyl)but-3-ynamido)-3,3-dimethylbutanoyl)-4-hydroxy-N-((S)-1-(4-(4-methylthiazol-5-yl)phenyl)ethyl)pyrrolidine-2-carboxamide]
30 | 62 |  | Cc1ncsc1-c1ccc([C@H](C)NC(=O)[C@@H]2C[C@@H](O)CN2C(=O)C(c2cc(-c3ccc(-c4cc(-c5ccccc5F)nnc4N)cc3)no2)C(C)C)cc1 (stereo partly drawn) [Compound 9, (2S,4R)-1-(2-(3-(4-(3-amino-6-(2-fluorophenyl)pyridazin-4-yl)phenyl)isoxazol-5-yl)-3-methylbutanoyl)-4-hydroxy-N-((S)-1-(4-(4-methylthiazol-5-yl)phenyl)ethyl)pyrrolidine-2-carboxamide]
92 |  | 52 | Cc1ncsc1-c1ccc([C@H](C)NC(=O)[C@@H]2C[C@@H](O)CN2C(=O)[C@@H](NC(=O)C2CCC(c3ccc(-c4cc(-c5ccccc5O)nnc4N)cc3)CC2)C(C)(C)C)cc1 (single isomer, unassigned) [Compound 41]
7 |  | 35 | Cc1ncsc1-c1ccc([C@H](C)NC(=O)[C@@H]2C[C@@H](O)CN2C(=O)C(c2cc(-c3ccc(-c4cc(-c5ccc[nH]c5=O)nnc4N)cc3)no2)C(C)C)cc1 (stereo partly shown) [Compound 17]
